Experimental data published in US4123612A, “7-(5-Am ino-5-carboxyvaleramido)-3-(carbamoyoloxymethyl)-3-cephem-4-carboxylic acid” (Eli Lilly and Company, priority 1974, dated 1978).

Key:
[1] = solubility; assay type: physicochemical
[2] = tested on: Staphylococcus aureus 3055; assay: Bauer-Kirby disc diffusion, zone of inhibition; assay type: cell-based
[3] = tested on: Pseudomonas sp. Ps 24; assay: Bauer-Kirby disc diffusion, zone of inhibition; assay type: cell-based
[4] = tested on: Pseudomonas solanacearum; assay type: in vivo; conditions: 100 ppm.; 0 = no control, 4 = complete control; heavy infestation in controls
[5] = tested on: Proteus sp. PR6; assay: Bauer-Kirby disc diffusion, zone of inhibition; assay type: cell-based
[6] = tested on: Escherichia coli EC 25; assay: Bauer-Kirby disc diffusion, zone of inhibition; assay type: cell-based
[7] = tested on: Pseudomonas sp. Ps 30; assay: Bauer-Kirby disc diffusion, zone of inhibition; assay type: cell-based
[8] = tested on: Salmonella typhosa SA 12; assay: Bauer-Kirby disc diffusion, zone of inhibition; conditions: Salmonella enterica
Text: (§1) The evaluation was made on the monoammonium salts of separated factors I and II.

[9] = tested on: Ascaris lumbricoides var. suum; assay: anthelmintic evaluation in mice by treated feed, separate factors (Example 13); assay type: in vivo; conditions: 0.05 percent in diet, control 2.66
Text: The feeds were utilized as diets for separate groups of mice, five mice per group. About twelve hours after initiation of the feeding, the mice were infected with Ascaris lumbricoides var. suum ova. Another group of five mice was fed the non-medicated feed to serve as a control but was similarly infected at the same time with Ascaris lumbricoides var. suum. All groups were fed their respective feed and maintained under normal laboratory conditions for a period of eight days, at which time all mice were taken off feed. On the ninth day, all mice were sacrificed and the lungs examined to determine the presence, and if present, numbers, of lesions of Ascaris lumbricoides var. suum.
In a further evaluation, the monoammonium salts of A16886I and A16886II were separately evaluated for the control of Ascaris lumbricoides var. suum. The evaluations were conducted in accordance with the procedure reported in Example 11 at a concentration in the diet of 0.05 percent.

[10] = physchem; conditions: 66% dimethylformamide-water
[11] = tested on: Proteus sp. PR7; assay: Bauer-Kirby disc diffusion, zone of inhibition; assay type: cell-based
[12] = tested on: Staphylococcus aureus 3074; assay: Bauer-Kirby disc diffusion, zone of inhibition; assay type: cell-based
[13] = tested on: Klebsiella-Aerobacter KA 14; assay: Bauer-Kirby disc diffusion, zone of inhibition; assay type: cell-based
[14] = tested on: Klebsiella-Aerobacter KA 25; assay: Bauer-Kirby disc diffusion, zone of inhibition; assay type: cell-based
[15] = tested on: Salmonella typhosa SA 16; assay: Bauer-Kirby disc diffusion, zone of inhibition; conditions: Salmonella enterica
Text: as §1

[16] = tested on: Escherichia coli 0127; assay: Bauer-Kirby disc diffusion, zone of inhibition; assay type: cell-based

What does the source list for `COC1(NC(=O)CCCC(N)C(=O)O)C(=O)N2C(C(=O)O)=C(COC(N)=O)CS[C@@H]21` (stereo partly drawn) [A16886I, 7-(5-amino-5-carboxyvaleramido)-3-(carbamoyloxymethyl)-7-methoxy-3-cephem-4-carboxylic acid]?
solubility in acetonitrile and other organic solvents ([1]; acetonitrile and other organic solvents): essentially insoluble; solubility in lower alkanols ([1]; lower alkanols): slightly soluble; solubility in water ([1]; water): very soluble; zone of inhibition at 0.5 µg/disc ([2]; 0.5 μg./disc): 0 mm; zone of inhibition at 1 µg/disc ([2]; 1.0 μg./disc): 0 mm; zone of inhibition at 2.5 µg/disc ([2]; 2.5 μg./disc): 0 mm; zone of inhibition at 5 µg/disc ([2]; 5 μg./disc): 0 mm; zone of inhibition at 10 µg/disc ([2]; 10 μg./disc): 0 mm; zone of inhibition at 30 µg/disc ([2]; 30 μg./disc): 0 mm; zone of inhibition at 0.5 µg/disc ([3]; SP.PS24, 0.5 μg./disc): 0 mm; zone of inhibition at 1 µg/disc ([3]; SP.PS24, 1.0 μg./disc): 10.1 mm; zone of inhibition at 2.5 µg/disc ([3]; SP.PS24, 2.5 μg./disc, * = satellite colonies within zone (Factor II)): 13.2 mm; zone of inhibition at 5 µg/disc ([3]; SP.PS24, 5 μg./disc, * = satellite colonies within zone (Factor II)): 15.7 mm; zone of inhibition at 10 µg/disc ([3]; SP.PS24, 10 μg./disc): 18.2 mm; zone of inhibition at 30 µg/disc ([3]; SP.PS24, 30 μg./disc): 23 mm; Disease Rating [4]: 4; zone of inhibition at 0.5 µg/disc ([5]; 0.5 μg./disc): 0 mm; zone of inhibition at 1 µg/disc ([5]; 1.0 μg./disc): 9.9 mm; zone of inhibition at 2.5 µg/disc ([5]; 2.5 μg./disc): 13.6 mm; zone of inhibition at 5 µg/disc ([5]; 5 μg./disc): 16.7 mm; zone of inhibition at 10 µg/disc ([5]; 10 μg./disc): 19 mm; zone of inhibition at 30 µg/disc ([5]; 30 μg./disc): 23.2 mm; zone of inhibition at 0.5 µg/disc ([6]; EC25, 0.5 μg./disc): 0 mm; zone of inhibition at 1 µg/disc ([6]; EC25, 1.0 μg./disc): 0 mm; zone of inhibition at 2.5 µg/disc ([6]; EC25, 2.5 μg./disc): 9.1 mm; zone of inhibition at 5 µg/disc ([6]; EC25, 5 μg./disc): 12.5 mm; zone of inhibition at 10 µg/disc ([6]; EC25, 10 μg./disc): 15.1 mm; zone of inhibition at 30 µg/disc ([6]; EC25, 30 μg./disc): 19.6 mm; zone of inhibition at 0.5 µg/disc ([7]; SP.PS30, 0.5 μg./disc): 0 mm; zone of inhibition at 1 µg/disc ([7]; SP.PS30, 1.0 μg./disc): 0 mm; zone of inhibition at 2.5 µg/disc ([7]; SP.PS30, 2.5 μg./disc): 0 mm; zone of inhibition at 5 µg/disc ([7]; SP.PS30, 5 μg./disc): 0 mm; zone of inhibition at 10 µg/disc ([7]; SP.PS30, 10 μg./disc): 0 mm; zone of inhibition at 30 µg/disc ([7]; SP.PS30, 30 μg./disc): 0 mm; zone of inhibition at 0.5 µg/disc [8]: 8 mm; zone of inhibition at 1 µg/disc [8]: 11.3 mm; zone of inhibition at 2.5 µg/disc [8]: 16.9 mm; zone of inhibition at 5 µg/disc [8]: 19.9 mm; zone of inhibition at 10 µg/disc [8]: 22.8 mm; zone of inhibition at 30 µg/disc [8]: 27.2 mm; Average Number of Lung Lesions Per Group [9]: 0.46; pKa ([10]; pH 6.5, pK'a1): 4.1; pKa ([10]; pH 6.5, pK'a2): 5.2; pKa ([10]; pH 6.5, pK'a3): 9.3; pKa ([10]; pH 6.5, pK'a4): 10.5; zone of inhibition at 0.5 µg/disc ([11]; 0.5 μg./disc): 0 mm; zone of inhibition at 1 µg/disc ([11]; 1.0 μg./disc): 0 mm; zone of inhibition at 2.5 µg/disc ([11]; 2.5 μg./disc): 0 mm; zone of inhibition at 5 µg/disc ([11]; 5 μg./disc): 0 mm; zone of inhibition at 10 µg/disc ([11]; 10 μg./disc): 10.4 mm; zone of inhibition at 30 µg/disc ([11]; 30 μg./disc): 14 mm; zone of inhibition at 0.5 µg/disc ([12]; 0.5 μg./disc): 0 mm; zone of inhibition at 1 µg/disc ([12]; 1.0 μg./disc): 0 mm; zone of inhibition at 2.5 µg/disc ([12]; 2.5 μg./disc): 0 mm; zone of inhibition at 5 µg/disc ([12]; 5 μg./disc): 0 mm; zone of inhibition at 10 µg/disc ([12]; 10 μg./disc): 0 mm; zone of inhibition at 30 µg/disc ([12]; 30 μg./disc): 0 mm; zone of inhibition at 0.5 µg/disc ([13]; 0.5 μg./disc): 0 mm; zone of inhibition at 1 µg/disc ([13]; 1.0 μg./disc): 7.6 mm; zone of inhibition at 2.5 µg/disc ([13]; 2.5 μg./disc): 11.4 mm; zone of inhibition at 5 µg/disc ([13]; 5 μg./disc): 15.4 mm; zone of inhibition at 10 µg/disc ([13]; 10 μg./disc): 18.8 mm; zone of inhibition at 30 µg/disc ([13]; 30 μg./disc): 23 mm; zone of inhibition at 0.5 µg/disc ([14]; 0.5 μg./disc): 0 mm; zone of inhibition at 1 µg/disc ([14]; 1.0 μg./disc): 0 mm; zone of inhibition at 2.5 µg/disc ([14]; 2.5 μg./disc): 9 mm; zone of inhibition at 5 µg/disc ([14]; 5 μg./disc): 12.3 mm; zone of inhibition at 10 µg/disc ([14]; 10 μg./disc): 15.8 mm; zone of inhibition at 30 µg/disc ([14]; 30 μg./disc): 22.1 mm; zone of inhibition at 0.5 µg/disc [15]: 0 mm; zone of inhibition at 1 µg/disc [15]: 9.3 mm; zone of inhibition at 2.5 µg/disc [15]: 13.1 mm; zone of inhibition at 5 µg/disc [15]: 16.2 mm; zone of inhibition at 10 µg/disc [15]: 19.6 mm; zone of inhibition at 30 µg/disc [15]: 24.2 mm; zone of inhibition at 0.5 µg/disc ([16]; 0.5 μg./disc): 8.4 mm; zone of inhibition at 1 µg/disc ([16]; 1.0 μg./disc): 12.7 mm; zone of inhibition at 2.5 µg/disc ([16]; 2.5 μg./disc): 15.9 mm; zone of inhibition at 5 µg/disc ([16]; 5 μg./disc): 18.6 mm; zone of inhibition at 10 µg/disc ([16]; 10 μg./disc): 20.7 mm; zone of inhibition at 30 µg/disc ([16]; 30 μg./disc): 25.6 mm
